Assay results: PubChem BioAssay AID1963838 (Molecular Pharmacology Branch, DTP, NCI, 2024)
pIC50: −log10 of the molar value.

System: 855422-203-R-J1-PDC complex spheroid viability
Test: Anticancer human tumor 855422-203-R-J1-PDC patient-derived bladder carcinoma cell line growth inhibition [POLQ]
Details: for pIC50: curve of first compound; for viability, T/C: stronger effect = lower value
Protocol: Multicellular complex tumor spheroid response to Polymerase (POL) inhibitors (novobiocin, ART-558, RP6685) in combination with a variety of drugs and investigational agents in selected tumor cell lines
The POL inhibitors (novobiocin, ART-558, and RP6685) were evaluated both individually and in combination with standard of care and investigational anticancer small molecules within a complex spheroid model of solid tumors. . Complex spheroids include a stromal component modeled by human endothelial cells (HUVEC) and fibroblasts modeled by human mesenchymal stem cells (MSCs). The concentration ranges selected for each drug and investigational agent were based upon clinically achievable concentrations if the clinical Cmax of the agent was known.
Compounds. The drugs and investigational agents: novobiocin (NSC847541), ART-558 (NSC835418), RP-6685 (NSC848927), peposertib (NSC802822), ceralasertib (NSC780249), elimusertib (NSC800525), camonsertib (NSC841442), AZD-1390 (NSC803789), olaparib (NSC753686), talazoparib (NSC767125), rucaparib (NSC756644), sotorasib (NSC818433), MRTX-1133 (NSC836407), SN-38 (NSC673596), topotecan (NSC609699), epotoside (NSC141540), doxorubicin (NSC123127), gemcitabine (NSC613327), 5-fluorouracil (NSC19893), paclitaxel (NSC125973), vemurafenib (NSC761431), MSA-2 (NSC828583), SN-011 (NSC837082), adavosertib (NSC754352), prexasertib (NSC758257), carboplatin (NSC241240) and oxaliplatin (NSC266046), were obtained from the National Cancer Institute (NCI) Developmental Therapeutics Program Chemical Repository (21). The FDA-approved anticancer drug set is available from the Developmental Therapeutics Program at https://dtp.cancer.gov/organization/dscb/obtaining/. […] The stock solutions were prepared in dimethyl sulfoxide (DMSO, Sigma-Aldrich, St. Louis, MO, cat. D2650), except for the platinum compounds which were prepared in saline (Quality Biological, Gaithersburg, MD, cat. 114-055-101), at 800-fold the tested concentration and stored at -70 degrees C prior to their use. All drugs and investigational agents were tested over a range starting from a high concentration at or near the clinical Cmax and decreasing in half-log increments. If the clinical Cmax for an agent had not been determined, the highest concentration tested was 10 microM, except for SN-38, which was tested at a high concentration of 1 microM.
Cell Culture. All cells were maintained in an incubator at 37 degrees C and 5% CO2 with 95% humidity. The PDC lines were cultured according to standard operating procedures established by the NCI PDMR (https://pdmr.cancer.gov). Table 3 of the manuscript, lists the cell lines along with the number of the three cell types plated to form the mct-spheroids and media for tumor cell growth. After thawing, all PDC lines, except 997537-175-T-J1-PDC and 415267-285-R-J2-PDC, were cultured in Matrigel-coated flasks prepared with a working solution of 1X Ham's F-12 nutrient mix, without supplementation (Thermo Fisher Scientific, cat. 11765054), 100 U/mL penicillin-streptomycin (Thermo Fisher Scientific, cat. 15140122), and 2.5% Matrigel (Corning Inc., Corning, NY, cat. 354248) for the first three passages. The two PDC lines 997537-175-T-J1-PDC and 415267-285-R-J2-PDC were cultured on uncoated flasks. The 857933-349-R-J2-PDC line was cultured in 6C/Colon 1B media containing advanced DMEM/F-12 (Thermo Fisher Scientific, cat. 12634028), 10 mM HEPES (Thermo Fisher Scientific, cat. 15630080), 1X GlutaMAX supplement (Thermo Fisher Scientific, cat. 35050061), 0.1 mg/mL primocin (InvivoGen, San Diego, CA, cat. ant-pm-2), 10% defined fetal bovine serum, heat inactivated (HyClone Laboratories Inc., Logan, UT, cat. SH30070.03HI), 50% L-WRN conditioned media (ATCC, cat. CRL-3276), 1.25 mM N-Acetyl-L-cysteine (Sigma-Aldrich, cat. A9165), 10 mM nicotinamide (Sigma-Aldrich, cat. N0636), 1X B-27 supplement (Thermo Fisher Scientific, cat. 17504044), 1X N-2 supplement (Thermo Fisher Scientific, cat. […]
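Note: spheroids exposed to compounds for seven days before readout.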

C=CC(=O)N1CCN(c2nc(=O)n(-c3c(C)ccnc3C(C)C)c3nc(-c4c(O)cccc4F)c(F)cc23)C(C)C1 (configuration not stated) + Nc1ccc(C#CCN(C(=O)Cc2ncc(C(F)(F)F)cc2C(F)(F)F)c2ccc(F)cc2)nn1
pIC50 (second compound 0.0316 µM): < 5.00
pIC50 (second compound 0.1 µM): < 5.00
pIC50 (second compound 0.316 µM): < 5.00
pIC50 (second compound 1 µM): < 5.00
pIC50 (second compound 3.16 µM): < 5.00
pIC50 (second compound 10 µM): < 5.00
viability, T/C (second compound 0.0316 µM, first compound 0.0316 µM): 101%
viability, T/C (second compound 0.0316 µM, first compound 0.1 µM): 116%
viability, T/C (second compound 0.0316 µM, first compound 0.316 µM): 120%
viability, T/C (second compound 0.0316 µM, first compound 1 µM): 105%
viability, T/C (second compound 0.0316 µM, first compound 3.16 µM): 144%
viability, T/C (second compound 0.0316 µM, first compound 10 µM): 214%
viability, T/C (second compound 0.1 µM, first compound 0.0316 µM): 99%
viability, T/C (second compound 0.1 µM, first compound 0.1 µM): 137%
viability, T/C (second compound 0.1 µM, first compound 0.316 µM): 107%
viability, T/C (second compound 0.1 µM, first compound 1 µM): 121%
viability, T/C (second compound 0.1 µM, first compound 3.16 µM): 159%
viability, T/C (second compound 0.1 µM, first compound 10 µM): 235%
viability, T/C (second compound 0.316 µM, first compound 0.0316 µM): 126%
viability, T/C (second compound 0.316 µM, first compound 0.1 µM): 129%
viability, T/C (second compound 0.316 µM, first compound 0.316 µM): 121%
viability, T/C (second compound 0.316 µM, first compound 1 µM): 122%
viability, T/C (second compound 0.316 µM, first compound 3.16 µM): 146%
viability, T/C (second compound 0.316 µM, first compound 10 µM): 176%
viability, T/C (second compound 1 µM, first compound 0.0316 µM): 99.4%
viability, T/C (second compound 1 µM, first compound 0.1 µM): 113%
viability, T/C (second compound 1 µM, first compound 0.316 µM): 92.2%
viability, T/C (second compound 1 µM, first compound 1 µM): 158%
viability, T/C (second compound 1 µM, first compound 3.16 µM): 120%
viability, T/C (second compound 1 µM, first compound 10 µM): 173%
viability, T/C (second compound 3.16 µM, first compound 0.0316 µM): 103%
viability, T/C (second compound 3.16 µM, first compound 0.1 µM): 121%
viability, T/C (second compound 3.16 µM, first compound 0.316 µM): 97.2%
viability, T/C (second compound 3.16 µM, first compound 1 µM): 129%
viability, T/C (second compound 3.16 µM, first compound 3.16 µM): 129%
viability, T/C (second compound 3.16 µM, first compound 10 µM): 175%
viability, T/C (second compound 10 µM, first compound 0.0316 µM): 109%
viability, T/C (second compound 10 µM, first compound 0.1 µM): 108%
viability, T/C (second compound 10 µM, first compound 0.316 µM): 99.1%
viability, T/C (second compound 10 µM, first compound 1 µM): 117%
viability, T/C (second compound 10 µM, first compound 3.16 µM): 113%
viability, T/C (second compound 10 µM, first compound 10 µM): 124%
